In assay [1] the target is T1, delta-5-desaturase (Homo sapiens, UniProt O60427).
T1 construct: endogenous in cells; host or cells: HepG2
Briefly: Delta-5-desaturase inhibitory activity using HepG2 cell. The class given is cell-based. To be noted: test compound 1 μM. As for the experimental part:
Delta-5-Desaturase Inhibitory Activity Using HepG2 Cell
HepG2 was plated on a 96-well plate at 1×10^5 cells/well, and cultured overnight in DMEM (Dulbecco's modified Eagle medium) containing 10% FBS (fetal bovine serum). After washing (200 μL×2) with PBS (phosphate buffered saline), 40 μL of a reaction medium (DMEM, penicillin/streptomycin, 0.3% BSA) containing the test compound was added, and the mixture was preincubated in a CO2 incubator at 37° C. for 30 min. The reaction was started by adding a reaction medium (20 μL) containing 0.1 μCi [^14C]Eicosatrienoic acid, and the mixture was incubated in a CO2 incubator at 37° C. Incubation was performed for 3 hr, the cells were washed twice with 200 μL of PBS, detached with 50 μL of trypsin-EDTA and placed on a 96-deep well block. Furthermore, 20 μL of 2.5N NaOH was added, the plate was sealed and incubated overnight at 55° C. to allow saponification. The fatty acid extraction included acidifying with 10 μL of formic acid, adding chloroform:methanol (1:4), stirring, and further adding 200 μL of pure water to separate into two layers. The operation after development with TLC followed the method of detection system using TLC in a system using a rat liver microsome. A delta-5-desaturase inhibitory rate (%) of 1 μM test compound was determined.

Assay [2] addresses T2, delta-5-desaturase (Rattus norvegicus, UniProt Q920R3).
T2 construct: a rat liver microsome fraction (10 μl) diluted to 3 mg/ml with a microsome buffer; from tissue; host or cells: rat liver microsome fraction
As to the kind of experiment: Delta-5-desaturase inhibitory activity using rat liver microsome. The class given is biochemical. The following applies: test compound 10 μM. Here is the method:
Delta-5-Desaturase Inhibitory Activity Using Rat Liver Microsome
The inhibitory activity of the test compound on delta-5-desaturase was measured by the method described below. To a solution of the test compound in DMSO prepared in advance was secondarily diluted with a buffer (300 mM NaH2PO4 [pH 7.4], 450 mM KCl, 30 mM NaF, 9 mM MgCl2, 4.5 mM glutathione [reduced form], 0.3% BSA [fatty acid free, SIGMA]) to give an assay buffer. The assay buffer (10 μl) was dispensed to a polypropylene deep 96-well block, and a rat liver microsome fraction (10 μl) diluted to 3 mg/ml with a microsome buffer (10 mM Tris-HCl [pH 7.4], 1 mM EDTA, 250 mM sucrose) was added. The enzyme reaction was started by adding 9 mM NADH, 9 mM ATP, 0.9 mM CoA, 10 μCi/ml (8E,11E,14E)-(1-^14C)eicosa-8,11,14-trienoic acid (PerkinElmer Inc.) (10 μl). The enzyme reaction was performed for 120 min at room temperature, and discontinued by the addition of 10 μl of 2.5M NaOH. After discontinuation of the reaction, the plate was sealed and incubated overnight at 55° C. to allow saponification. The fatty acid was extracted with solvent based on the Bligh & Dyer method described in Can. J. Biochem. Physiol., vol. 37, page 911 (1959) by adding formic acid:methanol:chloroform (1:6:3) (200 μl), maintaining the single layer state, sufficiently stirring the mixture and adding pure water (120 μl) for separation into two layers. The lower chloroform layer (10 μl) was spotted on a reversed-phase TLC plate (RP-18, 1154230001, Merck Japan, Ltd.), developed with acetonitrile:pure water:acetic acid (95:4.5:0.5), and the dried TLC plate was transcribed on Imaging Plate (Fuji Photo Film Co., Ltd.) for 5 hr or longer. The detection was performed using BAS-5000 (Fuji Photo Film Co., Ltd.), and the obtained spot image was numerically converted by Multi Gauge Ver2.3 (Fuji Photo Film Co., Ltd.) and a delta-5-desaturase inhibitory rate (%) of 10 μM test compound was determined.

Assay [3] concerns the target T2, delta-5-desaturase. As to the kind of experiment: Inhibitory activity on binding of [3H]-labelled Reference Example 1 ligand to delta-5-desaturase (rat liver microsome fraction). To be noted: test compound 10 μM, 3 nM tritiated ligand of Reference Example 1, read-out: Binding inhibitory activity against compound bind to delta-5-desaturase Binding inhibition rate (%) at 10 μM. Here is the method:
Inhibitory Activity on Binding of N-[2-({4-oxo-3-[4-(2,2,2-trifluoroethoxy)[2,6-^3H2]phenyl]-3,4-dihydrothieno[3,4-d]pyrimidin-2-yl}sulfanyl)ethyl]acetamide (Reference Example 1) to delta-5-desaturase)
All tests were performed at room temperature at 200 μL/well. A rat liver microsome fraction (30 μg/well) was preincubated with a test compound at a final concentration of 10 μM for 15 min in an assay buffer (10 mM Tris-HCl (pH 7.5), 100 mM KCl, 10 mM NaF, 3 mM MgCl2, 0.005% Tween20 and 1 mM GSH). N-[2-({4-oxo-3-[4-(2,2,2-trifluoroethoxy) [2,6-^3H2]phenyl]-3,4-dihydrothieno[3,4-d]pyrimidin-2-yl}sulfanyl)ethyl]acetamide was added to a final concentration of 3 nM and the mixture was incubated for 150 min. For Bound/Free separation, the membrane fraction was added on a GF/C glass filter using a cell harvester. The GF/C glass filter was washed 5 times with 300 μl of ice-cooled assay buffer (without 0.005% Tween) to separate the ligand bound to delta-5-desaturase. 50 μl of MicroScinti 0 was added, and the radioactivity on the filter was measured by TopCount. To evaluate non-specific binding, 10 μM N-[2-({4-oxo-3-[4-(2,2,2-trifluoroethoxy)phenyl]-3,4-dihydrothieno[3,4-d]pyrimidin-2-yl}sulfanyl)ethyl]acetamide was used. The inhibitory rate (%) of the test compound (10 μM) on the binding of N-[2-({4-oxo-3-[4-(2,2,2-trifluoroethoxy) [2,6-^3H2]phenyl]-3,4-dihydrothieno[3,4-d]pyrimidin-2-yl}sulfanyl)ethyl]acetamide to delta-5-desaturase was determined.

T2 sequence (Q920R3 whole entry): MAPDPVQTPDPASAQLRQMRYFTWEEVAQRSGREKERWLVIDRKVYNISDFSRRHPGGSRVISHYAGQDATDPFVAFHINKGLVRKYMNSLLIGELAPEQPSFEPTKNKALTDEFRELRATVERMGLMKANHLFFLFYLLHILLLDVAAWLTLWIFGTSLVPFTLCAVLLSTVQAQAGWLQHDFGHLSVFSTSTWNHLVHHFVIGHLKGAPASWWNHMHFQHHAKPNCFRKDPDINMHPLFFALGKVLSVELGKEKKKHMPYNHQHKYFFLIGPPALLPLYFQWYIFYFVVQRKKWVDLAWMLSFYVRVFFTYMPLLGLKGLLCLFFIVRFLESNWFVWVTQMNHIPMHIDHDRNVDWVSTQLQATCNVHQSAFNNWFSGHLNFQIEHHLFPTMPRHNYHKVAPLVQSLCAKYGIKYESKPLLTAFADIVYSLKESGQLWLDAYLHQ
T1 sequence (O60427 whole entry): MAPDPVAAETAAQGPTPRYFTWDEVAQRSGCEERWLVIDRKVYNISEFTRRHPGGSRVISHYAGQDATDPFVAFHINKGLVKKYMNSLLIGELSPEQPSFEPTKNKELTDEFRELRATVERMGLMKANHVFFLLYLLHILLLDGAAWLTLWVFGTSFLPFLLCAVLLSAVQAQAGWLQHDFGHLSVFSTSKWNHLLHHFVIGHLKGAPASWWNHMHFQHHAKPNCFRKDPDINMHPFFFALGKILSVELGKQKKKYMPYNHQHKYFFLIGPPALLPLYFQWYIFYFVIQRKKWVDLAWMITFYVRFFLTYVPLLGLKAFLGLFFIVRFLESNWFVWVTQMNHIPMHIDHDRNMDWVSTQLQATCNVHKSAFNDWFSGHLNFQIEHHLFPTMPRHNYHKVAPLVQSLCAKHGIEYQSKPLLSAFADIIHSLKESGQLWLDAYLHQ

Consider `CCSc1nc2c(c(=O)n1-c1ccc(OCC(F)(F)F)cc1)SCC(=O)N2` [Example 25, 2-(ethylsulfanyl)-3-[4-(2,2,2-trifluoroethoxy)phenyl]-3H-pyrimido[5,4-b][1,4]thiazine-4,7(6H,8H)-dione], for which the inhibition at 1 µM at delta-5-desaturase [1] is 92%. Further, the inhibition at 10 µM at delta-5-desaturase [2] and at delta-5-desaturase [3] was 98% in each case.
For the molecule `CCSc1nc2nc(N)ccc2c(=O)n1-c1ccc(OCC(F)(F)F)cc1` [Example 26, 7-amino-2-(ethylsulfanyl)-3-[4-(2,2,2-trifluoroethoxy)phenyl]pyrido[2,3-d]pyrimidin-4(3H)-one], the inhibition at 1 µM at delta-5-desaturase [1] stood at 107%. Further, the inhibition at 10 µM against delta-5-desaturase [2] was determined as 102%; on delta-5-desaturase [3], 96%.
As for `CCSc1nc2nc(C(N)=O)ccc2c(=O)n1-c1ccc(OCC(F)(F)F)cc1` [Example 27, 2-(ethylsulfanyl)-4-oxo-3-[4-(2,2,2-trifluoroethoxy)phenyl]-3,4-dihydropyrido[2,3-d]pyrimidine-7-carboxamide], the inhibition at 1 µM against delta-5-desaturase [1] turned out to be 98%. The values for the inhibition at 10 µM against delta-5-desaturase [2] and at delta-5-desaturase [3] were 97% and 93%, respectively.
Turning to `CCSc1nc2c(c(=O)n1-c1ccc(OCC(F)(F)F)cc1)CCNC2=O` [Example 28, 2-(ethylsulfanyl)-3-[4-(2,2,2-trifluoroethoxy)phenyl]-3,5,6,7-tetrahydropyrido[3,4-d]pyrimidine-4,8-dione], on delta-5-desaturase [1], the inhibition at 1 µM is 89%. For the same molecule, the inhibition at 10 µM on delta-5-desaturase [2] and at delta-5-desaturase [3] was 92% in each case.
As to `CCSc1nc2c(=O)[nH]ccc2c(=O)n1-c1ccc(OCC(F)(F)F)cc1` [Example 29, 2-(ethylsulfanyl)-3-[4-(2,2,2-trifluoroethoxy)phenyl]-3,7-dihydropyrido[3,4-d]pyrimidine-4,8-dione], the inhibition at 1 µM at delta-5-desaturase [1] stood at 96%. Also, the inhibition at 10 µM against delta-5-desaturase [2] is 99%; at delta-5-desaturase [3], 97%.
Take `CCCSc1nc2c(=O)[nH]ccc2c(=O)n1-c1ccc(OCC(F)(F)F)cc1` [Example 30, 2-(propylsulfanyl)-3-[4-(2,2,2-trifluoroethoxy)phenyl]-3,7-dihydropyrido[3,4-d]pyrimidine-4,8-dione]: the inhibition at 1 µM at delta-5-desaturase [1] was determined as 96%. Further, the inhibition at 10 µM on delta-5-desaturase [2] and on delta-5-desaturase [3] was 97% each time.
With `O=c1[nH]ccc2c(=O)n(-c3ccc(OCC(F)(F)F)cc3)c(OCC(F)(F)F)nc12` [Example 31, 2-(2,2,2-trifluoroethoxy)-3-[4-(2,2,2-trifluoroethoxy)phenyl]-3,7-dihydropyrido[3,4-d]pyrimidine-4,8-dione], the inhibition at 1 µM on delta-5-desaturase [1] worked out at 96%. Besides, the values for the inhibition at 10 µM at delta-5-desaturase [2] and on delta-5-desaturase [3] were 96% and 98%, respectively.
Regarding `CCOc1nc2c(=O)[nH]ccc2c(=O)n1-c1ccc(OCC(F)(F)F)cc1` [Example 32, 2-ethoxy-3-[4-(2,2,2-trifluoroethoxy)phenyl]-3,7-dihydropyrido[3,4-d]pyrimidine-4,8-dione], the inhibition at 1 µM against delta-5-desaturase [1] turned out to be 88%. In addition, the inhibition at 10 µM amounted to 96% on delta-5-desaturase [2] and 98% on delta-5-desaturase [3].
With `CCSc1nc2c(OC)nccc2c(=O)n1-c1ccc(OCC(F)(F)F)cc1` [Example 33, 2-(ethylsulfanyl)-8-methoxy-3-[4-(2,2,2-trifluoroethoxy)phenyl]pyrido[3,4-d]pyrimidin-4(3H)-one], on delta-5-desaturase [1], the inhibition at 1 µM came to 93%. The inhibition at 10 µM was 101% against delta-5-desaturase [2] and 96% at delta-5-desaturase [3].
As to `CCOc1nc2c(OCCOC)nccc2c(=O)n1-c1ccc(OCC(F)(F)F)cc1` [Example 34, 2-ethoxy-8-(2-methoxyethoxy)-3-[4-(2,2,2-trifluoroethoxy)phenyl]pyrido[3,4-d]pyrimidin-4(3H)-one], the inhibition at 1 µM against delta-5-desaturase [1] was 93%. The inhibition at 10 µM against delta-5-desaturase [2] was found to be 98%; at delta-5-desaturase [3] it was 88%.

(Values after patent publication US9023858B2, “Substituted pyrido[2,3-d]pyrimidines as delta-5-desaturase inhibitors” (Takeda Pharmaceutical Company Limited, priority 2010, dated 2015).)
